The source of these data is patent publication US20240415819A1, “MACROCYCLIC COMPOUNDS AS PROTEASOME SUBUNIT BETA TYPE-5 INHIBITORS” (Lead Discovery Center GmbH, priority 2021, published 2024).

In one assay the test system is Karpas cells. Nature of the assay: Glo assay of Karpas cells (Table 3; ProteasomeGlo plating scheme). The format is cell-based. The note with it: read-out: Pglo Karpas. The source says:
Inhibition is indicated as IC50 [nM] (“-”=not measured). […] • Chymotrypsin-Like Cell-Based Proteasome-GloTM Assay (Promega; […]) • Cell culture 384-well plates (Greiner BioOne; 781080) • Dispensing cassette, MultiDrop Standard tube dispensing cassette (Thermo Scientific; 24072670) • DPBS (Pan BioTech; P04-36500) • Cell culture 384-well plates (Greiner BioOne; 781080) • CPD source plate: diamond-shape plate (Labcyte; LP-0200) • Intermediate plate (Labcyte; P-05525) [table] • a. Remove the plates with cells from the incubator. • b. Take all the plates including the compound plate, intermediate plate and Staurosporine plate to the ECHO. • c. Click on “Open” in the ECHO software and select the protocol “QLI5_25ul_30 uM-Grenier”. • d. Follow the on-screen prompts and instructions once you click “Start” to insert the compound plate, intermediate plate and destination plates. • e. Change the final number of destination plates on the program. • f. Follow the on-screen prompts and instructions once you click “Start” to load the Staurosporine and destination plates. • g. Once all the compounds, DMSO and Staurosporine have been transferred, place the destination plates in a wet tissue box. • h. Place the destination plates back into the incubator and incubate at 37° C., 5% CO2 for 105 minutes. • i. Re-seal all the compound+Stauro diamond and intermediate plates and store in the dark. Chymotrypsin like ProteasomeGlo Assay • 1. Thaw the components of the ProteasomeGlo assay at room temperature including the ProteasomeGlo Buffer, the lyophilized Luciferin Detection Reagent and the Suc-LLVY-Glo Substrate. • 2. Reconstitute the Luciferin Detection Reagent in the amber coloured bottle by adding 50 ml of the ProteasomeGlo Buffer. • 3. Vortex the Suc-LLVY-Glo Substrate briefly to reconstitute the Substrate well. • 4. Spin down the Substrate and add 250 μl of the Substrate to the reconstituted Luciferin Detection Reagent from step 2. • 5. Briefly vortex the amber bottle with the mix to prepare a homogenous solution. • 6. Place the mix prepared in step 5 to sit at room temperature for 60 minutes. • 7. After 60 minutes, pipette 25 μl of the mix from step 5 into all wells with the cells. • 8. Shake the plates for 2-5 minutes to ensure the complete mixing of the ProteasomeGlo reagent with the cells. • 9. Leave the plates in the dark for 10-15 minutes. • 10. Measure the luminescence read-out using the Viktor and the protocol “Luminescence_384Well_0.2 sec”. (Note: The Protoeasome-GloTM Reagent (combined Proteasome-GloTM Substrate, Proteasome-GloTM Buffer and Luciferin Detection Reagent) can be stored at 4° C. or -20° C. for 1 month with minimal loss of activity.)

Assay [1] deals with B-cells isolated from PBMC's. Nature of the assay: Chymotrypsin-like ProteasomeGlo assay in B-cells isolated from PBMCs. The note with it: Homo sapiens. It counts as cell-based, human. An excerpt: PBMC's will be isolated from human blood followed by B-cell isolation from the PBMC's using the Miltenyi Isolation Kit. • 2. This experiment will use the Chymotrypsin-like ProteasomeGlo read-out to generate IC50's following compound treatment. • 3. Dilute all compounds 1:100 for the assay. • 4. […] Repeat the DMSO transfer with lane 12. • 5. Lane 12 should not be seeded with any cells. Only medium! • 6. For all steps, make sure the samples and reagents remain cool! • 7. While dealing with the buffy coats, be careful to not let any exposed skin to be in direct contact with the blood. […] PBMC isolation followed by B-cell isolation using the Miltenyi Kit • Day 2: B-cell plating, ECHO transfer and ProteasomeGlo assay For the initial steps and to make processing the buffy coats easier, separately process the buffy coats. • a. Cut the tube attached to the buffy coats carefully using a clean, sterile and fresh scalpel. • b. Transfer the blood into 2 individual 50 ml falcons. • c. Add an equal volume of DPBS to the blood in the falcons. • d. Add 20 ml of lymphocyte separating medium to two 50 ml falcons. • e. Carefully pour 15-20 ml of the blood+DPBS mix from step c. onto the lymphocyte separating medium from step d. • f. Centrifuge the falcons with the lymphocyte separating medium+blood mix at 800×g for 15 minutes using a swing-out rotor. • g. Following centrifugation, carefully remove the falcons from the centrifuge. • h. The following layers will be observed: • i. Aspirate the plasma layer off carefully without disturbing the different layers. • j. Remove the cell pellet using a pipette into two fresh 50 ml falcons. • k. Fill the falcons with the cells up to 50 ml with DPBS. • l. Centrifuge the falcons at 250×g for 10 minutes using a swing-out rotor (Brake-off). • m. Aspirate the complete DPBS off the cells without disturbing the cell pellet at the bottom of the falcon. • n. Re-suspend the cell pellet in 10 ml of 1×RBC lysis buffer. • o. Incubate the falcons at room temperature in the dark for 10 minutes. • p. After RBC lysis, centrifuge the tubes at 250×g for 10 minutes using a swing-out rotor (brake-off). • (*Note: If the cell pellet is still red or light red, repeat steps n. to p.!) • q. Re-suspend the cell pellet in DPBS up to 50 ml in the falcon. • r. Centrifuge the falcons at 250×g for 10 minutes using a swing-out rotor (Brake-off). • s. Aspirate the DPBS off the cells without disturbing the cell pellet at the bottom of the falcon. • t. Repeat the wash step as described in steps q. to s. 2× times more (total number of washes is 3×). • u. Aspirate the DPBS completely off the cell pellet after the last wash without disturbing the cell pellet. • v. Re-suspend the cell pellet in 20 ml of PBMC cell medium. • w. […] Re-suspend the pellet in volume of the B-cell isolation buffer calculated as follows: • k. Mix well using a 1 ml pipette and incubate the mix on ice for 20 mins. • l. In the meantime, equilibrate one LS Column as follows: • 1. Insert one LS Column into one slot of the separator as depicted in the pictures above. • 2. Place a 50 ml falcon at the bottom of the LS column to collect the wash flow-through. • 3. Add 3 ml of the B-cell isolation buffer into the column. • 4. Allow the buffer to flow-through making sure that the entire volume passes the column and that the column reservoir is empty before the addition of the cells. • 5. Remove the falcon with the flow-through and discard. • m. Place a fresh 50 ml falcon under the LS Column to collect the untouched B-cells isolated from the PBMCs. • n. Apply the entire volume of the cell+antibody+microbeads mix to the LS Column. • o. Collect the flow-through from each application of the mix into the same 50 ml falcon under the LS Column. • p. Once the complete volume of the cell+antibody+microbead mix has been passed through, proceed to washing of the column. • q. Add 3 ml of the B-cell isolation buffer to the LS Column and allow the buffer to flow-through. […]

Where [2] appears, read: B-cells isolated from PBMC's, read-out: Pglo B-Cell.

Structures are written as SMILES. Read-outs that look alike come from different tables or passages of the source. Where only a bound is given, the exact number is not on record here.

Take `Cc1ccc2cc1CNC(=O)[C@H](Cc1ccccc1)NC(=O)CCC(=O)N1CCCC(CCO2)C1` (stereo partly drawn) [Compound 79, (9S)-9-benzyl-5^4-methyl-4-oxa-7,10-diaza-1(3,1)-piperidina-5(1,3)-benzenacyclotetradecaphane-8,11,14-trione]: the IC50 (with Karpas cells; in assay [1] (setting [2])) was 500 to 1000 nM each time.

In the case of `COc1ccccc1CC(=O)N[C@H]1CC(=O)N2CCCC(CCOc3ccc(C)c(c3)CNC(=O)[C@H](CCc3ccccc3)NC1=O)C2` (stereo partly drawn) [Compound 84, 2-(2-methoxyphenyl)-N-((9S,12S)-5^4-methyl-8,11,14-trioxo-9-phenethyl-4-oxa-7,10-diaza-1(3,1)-piperidina-5(1,3)-benzenacyclotetradecaphane-12-yl)acetamide], the IC50 in the assay on Karpas cells was under 100 nM. For `Cc1ccc2cc1CNC(=O)[C@H](CCc1ccccc1)NC(=O)[C@@H](NC(=O)c1n[nH]c3ccccc13)CC(=O)N1CCCC(CCO2)C1` (stereo partly drawn) [Compound 60, N-((9S,12S)-5^4-methyl-8,11,14-trioxo-9-phenethyl-4-oxa-7,10-diaza-1(3,1)-piperidina-5(1,3)-benzenacyclotetradecaphane-12-yl)-1H-indazole-3-carboxamide], the IC50 (in the assay on Karpas cells; in assay [1] (setting [2])) was 100 to 500 nM in each case. `Cc1ccc2cc1CNC(=O)[C@H](CCc1ccccc1)NC(=O)[C@@H](NC(=O)[C@H](C)c1ccccc1)CC(=O)N1CCCC(CCO2)C1` (stereo partly drawn) [Compound 80, (2R)-N-((9S,12S)-5^4-methyl-8,11,14-trioxo-9-phenethyl-4-oxa-7,10-diaza-1(3,1)-piperidina-5(1,3)-benzenacyclotetradecaphane-12-yl)-2-phenylpropanamide]: the IC50 (with Karpas cells; in assay [1] (setting [2])) was under 100 nM throughout.

As for `COc1cccc(CC(=O)N[C@H]2CC(=O)N3CCCC(CCOc4ccc(C)c(c4)CNC(=O)[C@H](CCc4ccccc4)NC2=O)C3)c1` (stereo partly drawn) [Compound 85, 2-(3-methoxyphenyl)-N-((9S,12S)-5^4-methyl-8,11,14-trioxo-9-phenethyl-4-oxa-7,10-diaza-1(3,1)-piperidina-5(1,3)-benzenacyclotetradecaphane-12-yl)acetamide], the IC50 in the assay on Karpas cells is under 100 nM. `Cc1ccc2cc1CNC(=O)[C@H](CCc1ccccc1)NC(=O)[C@@H](NC(=O)CCc1cccc(F)c1)CC(=O)N1CCCC(CCO2)C1` (stereo partly drawn) [Compound 25, 3-(3-fluorophenyl)-N-((9S,12S)-5^4-methyl-8,11,14-trioxo-9-phenethyl-4-oxa-7,10-diaza-1(3,1)-piperidina-5(1,3)-benzenacyclotetradecaphane-12-yl)propanamide]: the IC50 in assay [1] (setting [2]) was under 100 nM. Regarding `CO[C@@H](C(=O)N[C@H]1CC(=O)N2CCCC(CCOc3ccc(C)c(c3)CNC(=O)[C@H](CCc3ccccc3)NC1=O)C2)c1ccccc1` (stereo partly drawn) [Compound 86, (2R)-2-methoxy-N-((9S,12S)-5^4-methyl-8,11,14-trioxo-9-phenethyl-4-oxa-7,10-diaza-1(3,1)-piperidina-5(1,3)-benzenacyclotetradecaphane-12-yl)-2-phenylacetamide], in the assay with Karpas cells, the IC50 is under 100 nM. Same read-out and setting: then `Cc1ccc2cc1CNC(=O)[C@H](CCc1ccccc1)NC(=O)[C@@H](NC(=O)CN1CCCC1)CC(=O)N1CCCC(CCO2)C1` (stereo partly drawn) [Compound 89, N-((9S,12S)-5^4-methyl-8,11,14-trioxo-9-phenethyl-4-oxa-7,10-diaza-1(3,1)-piperidina-5(1,3)-benzenacyclotetradecaphane-12-yl)-2-(pyrrolidin-1-yl)acetamide], with under 100 nM; and `Cc1ccc2cc1CNC(=O)[C@H](CCc1ccccc1)NC(=O)[C@@H](NC(=O)c1cc3cc(C(F)(F)F)ccc3n1C)CC(=O)N1CCCC(CCO2)C1` (stereo partly drawn) [Compound 87, 1-methyl-N-((9S,12S)-5^4-methyl-8,11,14-trioxo-9-phenethyl-4-oxa-7,10-diaza-1(3,1)-piperidina-5(1,3)-benzenacyclotetradecaphane-12-yl)-5-(trifluoromethyl)-1H-indole-2-carboxamide], with under 100 nM. As for `Cc1ccc2cc1CNC(=O)[C@H](CCc1ccccc1)NC(=O)[C@@H](NC(=O)c1ccccc1)CC(=O)N1CCCC(CCO2)C1` (stereo partly drawn) [Compound 26, N-((9S,12S)-5^4-methyl-8,11,14-trioxo-9-phenethyl-4-oxa-7,10-diaza-1(3,1)-piperidina-5(1,3)-benzenacyclotetradecaphane-12-yl)benzamide], in assay [1] (setting [2]), the IC50 was under 100 nM.

As for `Cc1ccc2cc1CNC(=O)C(CCc1cccnc1)NC(=O)CCC(=O)N1CCCC(CCO2)C1` (stereo not shown) [Compound 51, 5^4-methyl-9-(2-(pyridin-3-yl)ethyl)-4-oxa-7,10-diaza-1(3,1)-piperidina-5(1,3)-benzenacyclotetradecaphane-8,11,14-trione], in assay [1] (setting [2]), the IC50 is under 100 nM. The same measure, in the same setting: then `Cc1ccc2cc1CNC(=O)[C@H](CCc1ccccc1)NC(=O)[C@@H](NC(=O)c1ccccn1)CC(=O)N1CCCC(CCO2)C1` (stereo partly drawn) [Compound 40, N-((9S,12S)-5^4-methyl-8,11,14-trioxo-9-phenethyl-4-oxa-7,10-diaza-1(3,1)-piperidina-5(1,3)-benzenacyclotetradecaphane-12-yl)picolinamide], with under 100 nM.

In the case of `CCOC(=O)N[C@H]1CC(=O)N2CCCC(CCOc3ccc(C)c(c3)CNC(=O)[C@H](CCc3ccccc3)NC1=O)C2` (stereo partly drawn) [Compound 39, ethyl ((9S,12S)-5^4-methyl-8,11,14-trioxo-9-phenethyl-4-oxa-7,10-diaza-1(3,1)-piperidina-5(1,3)-benzenacyclotetradecaphane-12-yl)carbamate], the IC50 in assay [1] (read-out: Pglo B-Cell [nM]) is under 100 nM.
